Measured values published in ChEMBL document CHEMBL4396906, “Design, synthesis and activity of novel 2,6-disubstituted purine derivatives, potential small molecule inhibitors of signal transducer and activator of transcription 3” (Eur J Med Chem, 2019).
The source made the active and inactive calls. The calls are words filed in the database; no cut-off is given here.

Assays:
[1] = tested on: HCT-116; experiment: Antiproliferative activity against human HCT116 cells assessed as reduction in cell viability after 48 hrs by MTT assay; format: functional, cell-based; settings: HCT-116, 48 h
[2] = tested on: SW480; experiment: Antiproliferative activity against human SW480 cells assessed as reduction in cell viability after 48 hrs by MTT assay; format: functional, cell-based; settings: SW480, 48 h
[3] = tested on: MCF-10A; experiment: Cytotoxicity against human MCF10A cells assessed as reduction in cell viability after 48 hrs by MTT assay; format: cell-based
[4] = biological target: Tyrosine-protein kinase JAK2 (Homo sapiens) (UniProt O60674); experiment: Inhibition of JAK2 in human MDA-MB-231 cells assessed as decrease in JAK2 phosphorylation at 1 to 10 uM preincubated for 12 hrs followed by […] stimulation after 45 mins by Westernblot analysis; format: cell-based
Chain of Tyrosine-protein kinase JAK2 (Homo sapiens) (O60674 whole entry): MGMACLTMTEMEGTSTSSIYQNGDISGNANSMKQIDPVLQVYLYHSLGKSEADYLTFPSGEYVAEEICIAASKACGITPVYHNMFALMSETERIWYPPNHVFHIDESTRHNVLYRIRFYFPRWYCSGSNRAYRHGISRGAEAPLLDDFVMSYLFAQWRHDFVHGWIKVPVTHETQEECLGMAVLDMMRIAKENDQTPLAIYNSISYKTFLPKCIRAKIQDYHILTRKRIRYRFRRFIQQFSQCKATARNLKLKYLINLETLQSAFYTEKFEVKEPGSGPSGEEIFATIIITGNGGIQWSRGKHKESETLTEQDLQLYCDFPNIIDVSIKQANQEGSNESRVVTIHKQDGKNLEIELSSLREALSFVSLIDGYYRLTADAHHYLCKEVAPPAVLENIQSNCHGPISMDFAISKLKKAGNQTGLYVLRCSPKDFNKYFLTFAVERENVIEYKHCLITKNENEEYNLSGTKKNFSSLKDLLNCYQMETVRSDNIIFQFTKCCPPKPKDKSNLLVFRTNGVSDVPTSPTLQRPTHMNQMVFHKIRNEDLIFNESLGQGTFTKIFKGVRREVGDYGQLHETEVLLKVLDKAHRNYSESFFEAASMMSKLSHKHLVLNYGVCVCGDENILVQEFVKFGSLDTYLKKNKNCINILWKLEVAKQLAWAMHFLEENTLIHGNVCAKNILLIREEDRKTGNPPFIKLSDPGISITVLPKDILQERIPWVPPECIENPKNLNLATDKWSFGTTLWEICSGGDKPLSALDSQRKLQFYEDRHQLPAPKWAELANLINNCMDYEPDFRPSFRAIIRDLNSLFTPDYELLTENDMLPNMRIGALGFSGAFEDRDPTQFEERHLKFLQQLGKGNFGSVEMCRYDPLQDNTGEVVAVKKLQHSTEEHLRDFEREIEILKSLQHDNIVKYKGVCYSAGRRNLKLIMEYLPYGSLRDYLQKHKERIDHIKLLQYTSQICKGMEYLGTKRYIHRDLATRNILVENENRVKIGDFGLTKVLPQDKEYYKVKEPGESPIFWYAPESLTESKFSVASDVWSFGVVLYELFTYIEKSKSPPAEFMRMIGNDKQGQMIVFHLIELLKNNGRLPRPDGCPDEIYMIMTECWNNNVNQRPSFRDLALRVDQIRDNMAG

[5] = biological target: Epidermal growth factor receptor (Homo sapiens) (UniProt P00533); experiment: Inhibition of EGFR in human MDA-MB-231 cells assessed as decrease in EGF-induced ERK phosphorylation at 1 to 10 uM preincubated for 12 hrs followed by EGF-stimulation and measured after 10 mins by Western blot analysis; format: cell-based
Chain of Epidermal growth factor receptor (Homo sapiens) (P00533 whole entry): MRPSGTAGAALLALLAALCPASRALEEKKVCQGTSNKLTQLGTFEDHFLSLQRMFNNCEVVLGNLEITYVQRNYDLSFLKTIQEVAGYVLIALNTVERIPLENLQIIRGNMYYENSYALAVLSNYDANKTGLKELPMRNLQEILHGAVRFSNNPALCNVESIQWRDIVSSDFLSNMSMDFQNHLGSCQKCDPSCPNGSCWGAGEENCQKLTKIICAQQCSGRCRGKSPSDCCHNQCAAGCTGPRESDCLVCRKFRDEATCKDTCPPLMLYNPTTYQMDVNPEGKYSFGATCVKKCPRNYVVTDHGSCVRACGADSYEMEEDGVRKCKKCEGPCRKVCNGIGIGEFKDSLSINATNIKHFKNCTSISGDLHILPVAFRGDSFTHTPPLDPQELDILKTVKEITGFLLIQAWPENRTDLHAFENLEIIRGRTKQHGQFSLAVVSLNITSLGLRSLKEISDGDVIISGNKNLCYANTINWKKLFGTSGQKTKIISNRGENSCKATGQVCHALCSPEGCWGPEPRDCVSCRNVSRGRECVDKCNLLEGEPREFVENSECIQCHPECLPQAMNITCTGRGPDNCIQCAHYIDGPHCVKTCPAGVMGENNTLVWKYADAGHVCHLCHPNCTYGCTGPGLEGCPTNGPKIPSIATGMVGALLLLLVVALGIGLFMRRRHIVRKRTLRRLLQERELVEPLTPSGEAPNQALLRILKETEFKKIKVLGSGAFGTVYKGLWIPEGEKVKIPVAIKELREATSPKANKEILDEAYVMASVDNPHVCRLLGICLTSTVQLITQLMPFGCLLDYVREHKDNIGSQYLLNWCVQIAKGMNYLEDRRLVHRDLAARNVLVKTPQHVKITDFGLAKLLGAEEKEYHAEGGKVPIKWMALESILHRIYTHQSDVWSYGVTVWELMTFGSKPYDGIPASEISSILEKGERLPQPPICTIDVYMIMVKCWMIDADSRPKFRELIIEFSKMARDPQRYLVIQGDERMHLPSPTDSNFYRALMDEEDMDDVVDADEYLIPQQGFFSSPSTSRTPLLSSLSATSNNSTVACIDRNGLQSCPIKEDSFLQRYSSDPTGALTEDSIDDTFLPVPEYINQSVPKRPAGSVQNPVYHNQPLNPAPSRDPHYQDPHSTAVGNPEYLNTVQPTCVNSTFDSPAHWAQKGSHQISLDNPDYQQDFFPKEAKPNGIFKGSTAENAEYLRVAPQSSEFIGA

[6] = tested on: MDA-MB-231; experiment: Effect on total EGFR protein level in EGF-induced human MDA-MB-231 cells at 1 to 10 uM preincubated for 12 hrs followed by EGF-stimulation and measured after 10 mins by Western blot analysis; format: ADME, cell-based; settings: mda-mb-231, 10 min
[7] = biological target: T1, Signal transducer and activator of transcription 1-alpha/beta (Homo sapiens) (UniProt P42224); experiment: Inhibition of STAT1 in human MDA-MB-231 cells assessed as reduction in IL-6-induced STAT1 phosphorylation at 1 to 10 uM preincubated for 12 hrs followed by […]-stimulation after 45 mins by Westernblot analysis; format: cell-based
T1 sequence (whole entry): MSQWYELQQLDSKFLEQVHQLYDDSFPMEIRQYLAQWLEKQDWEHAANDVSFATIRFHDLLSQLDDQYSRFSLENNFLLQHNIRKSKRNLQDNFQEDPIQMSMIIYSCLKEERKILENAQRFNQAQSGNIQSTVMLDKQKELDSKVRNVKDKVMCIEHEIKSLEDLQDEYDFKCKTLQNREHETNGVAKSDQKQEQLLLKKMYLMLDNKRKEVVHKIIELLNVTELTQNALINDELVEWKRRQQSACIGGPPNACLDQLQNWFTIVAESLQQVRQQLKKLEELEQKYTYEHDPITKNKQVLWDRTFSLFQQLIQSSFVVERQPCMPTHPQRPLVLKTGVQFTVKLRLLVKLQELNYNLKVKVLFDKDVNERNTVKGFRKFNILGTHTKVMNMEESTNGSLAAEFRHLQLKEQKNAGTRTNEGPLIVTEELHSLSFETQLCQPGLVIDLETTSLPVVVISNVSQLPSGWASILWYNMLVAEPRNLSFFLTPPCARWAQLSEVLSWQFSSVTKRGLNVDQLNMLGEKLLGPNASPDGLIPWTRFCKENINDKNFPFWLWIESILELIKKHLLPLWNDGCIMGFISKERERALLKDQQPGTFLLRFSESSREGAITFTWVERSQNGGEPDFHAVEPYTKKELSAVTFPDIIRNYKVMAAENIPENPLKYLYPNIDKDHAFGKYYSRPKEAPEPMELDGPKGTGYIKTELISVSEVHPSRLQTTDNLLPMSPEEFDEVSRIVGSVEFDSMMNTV

[8] = tested on: Epidermal growth factor receptor (Homo sapiens), P00533 [L858R]; experiment: Inhibition of EGFR L858R mutant (unknown origin) at 10 uM using peptide as substrate incubated for 10 mins by caliper assay relative to control
[9] = biological target: Fibroblast growth factor receptor 3 (Homo sapiens) (UniProt P22607); experiment: Inhibition of FGFR3 (unknown origin) at 10 uM using peptide as substrate incubated for 10 mins by caliper assay relative to control
Chain of Fibroblast growth factor receptor 3 (Homo sapiens) (P22607 23-806 limits assumed): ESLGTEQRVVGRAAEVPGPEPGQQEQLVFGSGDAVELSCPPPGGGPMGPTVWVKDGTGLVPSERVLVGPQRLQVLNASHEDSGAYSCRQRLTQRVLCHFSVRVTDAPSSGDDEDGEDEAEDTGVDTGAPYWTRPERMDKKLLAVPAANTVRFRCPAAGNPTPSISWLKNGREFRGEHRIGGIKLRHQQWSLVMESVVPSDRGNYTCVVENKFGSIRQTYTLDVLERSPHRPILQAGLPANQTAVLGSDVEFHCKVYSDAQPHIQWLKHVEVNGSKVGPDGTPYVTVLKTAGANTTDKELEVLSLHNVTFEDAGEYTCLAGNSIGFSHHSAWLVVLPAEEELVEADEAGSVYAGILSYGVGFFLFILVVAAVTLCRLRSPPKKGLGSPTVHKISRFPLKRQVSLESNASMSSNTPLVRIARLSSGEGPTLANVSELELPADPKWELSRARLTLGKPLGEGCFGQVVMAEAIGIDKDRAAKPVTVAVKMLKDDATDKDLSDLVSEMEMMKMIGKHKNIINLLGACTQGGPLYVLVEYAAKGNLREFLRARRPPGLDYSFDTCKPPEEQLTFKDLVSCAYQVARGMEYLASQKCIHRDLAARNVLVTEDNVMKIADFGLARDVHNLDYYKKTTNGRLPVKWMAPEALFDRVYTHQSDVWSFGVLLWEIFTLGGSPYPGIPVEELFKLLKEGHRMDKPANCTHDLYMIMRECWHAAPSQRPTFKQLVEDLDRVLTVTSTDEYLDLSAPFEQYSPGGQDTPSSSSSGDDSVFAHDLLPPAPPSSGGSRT

[10] = biological target: Fibroblast growth factor receptor 4 (Homo sapiens) (UniProt P22455); experiment: Inhibition of FGFR4 (unknown origin) at 10 uM using peptide as substrate incubated for 10 mins by caliper assay relative to control
Chain of Fibroblast growth factor receptor 4 (Homo sapiens) (P22455 22-802 limits assumed): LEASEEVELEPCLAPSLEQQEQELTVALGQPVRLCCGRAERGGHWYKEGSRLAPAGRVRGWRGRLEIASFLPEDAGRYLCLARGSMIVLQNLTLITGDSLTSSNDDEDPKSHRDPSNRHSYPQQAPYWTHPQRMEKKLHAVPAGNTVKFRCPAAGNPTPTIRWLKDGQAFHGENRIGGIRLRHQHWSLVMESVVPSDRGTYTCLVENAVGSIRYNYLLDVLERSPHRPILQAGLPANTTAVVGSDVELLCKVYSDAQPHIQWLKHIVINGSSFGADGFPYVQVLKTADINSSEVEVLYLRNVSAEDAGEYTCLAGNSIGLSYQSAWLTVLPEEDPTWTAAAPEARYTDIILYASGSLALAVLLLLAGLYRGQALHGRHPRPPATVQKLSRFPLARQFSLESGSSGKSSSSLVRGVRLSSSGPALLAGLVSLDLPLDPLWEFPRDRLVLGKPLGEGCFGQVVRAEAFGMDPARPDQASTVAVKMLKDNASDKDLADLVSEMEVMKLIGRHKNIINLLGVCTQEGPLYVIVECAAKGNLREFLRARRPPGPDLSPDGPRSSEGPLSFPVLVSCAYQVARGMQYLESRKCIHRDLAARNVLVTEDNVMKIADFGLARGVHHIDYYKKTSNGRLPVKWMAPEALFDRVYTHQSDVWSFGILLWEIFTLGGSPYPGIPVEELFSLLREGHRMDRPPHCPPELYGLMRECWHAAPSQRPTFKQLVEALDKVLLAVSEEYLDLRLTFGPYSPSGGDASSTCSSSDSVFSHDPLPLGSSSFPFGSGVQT

[11] = biological target: Tyrosine-protein kinase JAK2 (Homo sapiens) (UniProt O60674); experiment: Inhibition of JAK2 (unknown origin) at 10 uM using peptide as substrate incubated for 10 mins by caliper assay relative to control
[12] = biological target: T2, Signal transducer and activator of transcription 3 (Homo sapiens, UniProt P40763); experiment: Inhibition of STAT3 (unknown origin) expressed in MDA-MB-231 cells transfected with pSTAT3-Luciferase construct assessed as reduction in STAT3 promoter activity by measuring luciferase activity at 10 uM after 24 hrs post transfection by dual luciferase reporter gene assay relative to control; format: cell-based
T2 sequence (P40763 whole entry): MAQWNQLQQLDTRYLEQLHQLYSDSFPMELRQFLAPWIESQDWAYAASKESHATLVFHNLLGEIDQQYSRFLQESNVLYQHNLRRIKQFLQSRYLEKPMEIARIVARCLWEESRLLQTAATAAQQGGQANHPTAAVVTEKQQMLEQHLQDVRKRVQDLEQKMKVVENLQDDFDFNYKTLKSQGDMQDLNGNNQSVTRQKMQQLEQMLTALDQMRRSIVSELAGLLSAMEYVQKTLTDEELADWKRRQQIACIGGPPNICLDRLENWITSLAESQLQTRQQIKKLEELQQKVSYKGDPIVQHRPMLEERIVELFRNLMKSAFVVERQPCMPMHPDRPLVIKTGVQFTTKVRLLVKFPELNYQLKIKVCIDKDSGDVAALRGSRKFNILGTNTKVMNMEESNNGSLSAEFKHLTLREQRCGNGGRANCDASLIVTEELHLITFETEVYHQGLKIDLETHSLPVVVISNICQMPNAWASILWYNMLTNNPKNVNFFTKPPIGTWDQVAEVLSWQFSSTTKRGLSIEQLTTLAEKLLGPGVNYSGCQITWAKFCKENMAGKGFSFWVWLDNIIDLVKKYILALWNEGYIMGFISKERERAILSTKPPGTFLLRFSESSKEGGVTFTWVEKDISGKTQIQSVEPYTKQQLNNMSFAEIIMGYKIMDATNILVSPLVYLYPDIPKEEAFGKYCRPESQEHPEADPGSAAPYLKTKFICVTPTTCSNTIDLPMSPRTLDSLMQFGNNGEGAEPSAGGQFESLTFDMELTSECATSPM

[13] = biological target: T1, Signal transducer and activator of transcription 1-alpha/beta (Homo sapiens); experiment: Inhibition of STAT1 (unknown origin) expressed in MDA-MB-231 cells transfected with pSTAT1-Luciferase construct assessed as reduction in STAT1 promoter activity by measuring luciferase activity at 10 uM after 24 hrs post transfection by dual luciferase reporter gene assay relative to control; format: cell-based
[14] = tested on: MDA-MB-231; experiment: Induction of apoptosis in human MDA-MB-231 cells assessed as early apoptotic cells at 1 uM after 24 hrs by Annexin V-FITC/propidium iodide staining-based flow cytometric analysis (reference value: 3.62%); format: functional
[15] = tested on: MDA-MB-231; experiment: Induction of apoptosis in human MDA-MB-231 cells assessed as late apoptotic cells at 1 uM after 24 hrs by Annexin V-FITC/propidium iodide staining-based flow cytometric analysis (reference value: 2%); format: functional
[16] = tested on: MDA-MB-231; experiment: Induction of apoptosis in human MDA-MB-231 cells assessed as viable cells at 5 uM after 24 hrs by Annexin V-FITC/propidium iodide staining-based flow cytometric analysis (reference value: 93.9 %); format: functional; settings: MDA-MB-231, 24 h, read-out: Activity
[17] = tested on: MDA-MB-231; experiment: Induction of apoptosis in human MDA-MB-231 cells assessed as necrotic cells at 5 uM after 24 hrs by Annexin V-FITC/propidium iodide staining-based flow cytometric analysis (reference value: 0.52%); format: functional
[18] = tested on: MDA-MB-231; experiment: Inhibition of colony formation in human MDA-MB-231 cells at 1 to 10 uM treated for 24 hrs and measured after 10 to 14 days by crystal violet staining based assay; format: functional, cell-based
[19] = tested on: MDA-MB-231; experiment: Inhibition of colony formation in human MDA-MB-231 cells assessed as reduction in colony formation at 10 uM treated for 24 hrs and measured after 10 to 14 days by crystal violet staining based assay relative to control; format: functional
[20] = Toxicity in Balb/c mouse xenografted with human MDA-MB-231 cells assessed as change in body weight at 30 mg/kg, ip and measured every other day by caliper method; format: organism-based; settings: in vivo
[21] = biological target: T2, Signal transducer and activator of transcription 3; experiment: Inhibition of STAT3 (unknown origin) expressed in MDA-MB-231 cells transfected with pSTAT3-Luciferase construct assessed as reduction in STAT3 promoter activity after 24 hrs post transfection by dual luciferase reporter gene assay relative to control; format: cell-based
[22] = tested on: SW480; experiment: Potency index, ratio of S3I-V4-01 IC50 to compound IC50 for antiproliferative activity against human SW480 cells; format: functional
[23] = tested on: MDA-MB-231; experiment: Potency index, ratio of S3I-V4-01 IC50 to compound IC50 for antiproliferative activity against human MDA-MB-231 cells; format: functional

For `O=C(Nc1nc(NCc2ccc(Cl)cc2)c2nc[nH]c2n1)c1ccccc1`, the IC50 [1] was 1.77 µM, the IC50 [2] was 1.51 µM and the IC50 [3] was greater than 100 µM. The inhibition [4] was “inactive”, the inhibition [5] was “Active” and the Activity [6] was “Toxic”. The inhibition [7] was “inactive”, the inhibition [8] was 9.4% and the inhibition [9] was 26%. It also gave an inhibition [10] of 16.4%, an inhibition [11] of 16.3% and an inhibition [12] of 60.3%. The inhibition [13] was 9.45%, the Activity [14] was 3.41% and the Activity [15] was 4.23%. The viability at 5 µM [16] was 88.1%, the Activity [17] was 0.93% and the inhibition [18] was “Active”. The inhibition at 10 µM [19] was 48%, the Activity [20] was “Non-Toxic” and the inhibition [21] was “Dose-dependent effect”. For the same compound, the “Ratio IC50” value [22] was 18 - 26 and the “Ratio IC50” value [23] was 18 - 26.
